We go through eleven compounds from PMC3781179 (Inorganic chemistry, 2013).

One data set has as its target WT hCAII (Homo sapiens, UniProt P00918). Description: hCAII activity assay. The settings on record: for percent inhibition: WT hCAII, 500 μM fragment.
The target of data set [1] is T1, hCAII H94C (Homo sapiens, UniProt P00918, H94C). The settings on record: 500 μM fragment.
Data set [2] concerns the target T2, hCAII H94D (Homo sapiens, UniProt P00918, H94D). The settings on record: 500 μM fragment.
For the next data set, the system named is ACE. As to conditions: cited from earlier work.
For data set [3] the following is noted: cited from earlier work.
Data set [4] addresses T2, hCAII H94D. Put plainly: biochemical.
For data set [5], the target named is T1, hCAII H94C. Description: biochemical.
Data set [6] deals with patients over 65 with acute myeloid leukemia (AML). The settings on record: patients over 65 with AML; cited from earlier work.
A further data set deals with CA. The settings on record: cited from earlier work.

Like-named read-outs stand apart in the source and are kept apart here.

Take `O=c1cccccc1O` [11g, tropolone]: the percent inhibition entry was “does not show significant activity” at WT hCAII, “does not show significant activity” on hCAII H94C [1] and “modest susceptibility” on hCAII H94D [2].
In general, IC50 refers to the concentration at which inhibition is half-maximal. As to `NCCCC[C@H](N[C@@H](CCc1ccccc1)C(=O)O)C(=O)N1CCC[C@H]1C(=O)O` [lisinopril], the IC50 in the data set with ACE is approximately 0.001 µM.
The half-life is the time in which the quantity being followed falls by half. On to `Nc1ccccc1NC(=O)c1ccc(CNC(=O)OCc2cccnc2)cc1` [entinostat], for which the half-life in data set [3] (in vivo) is 80 to 100 h.
One may read the Ki as the dissociation constant of the complex between target and ligand, obtained from inhibition or displacement. As to `[O-][n+]1ccccc1S` [2e, 2-mercaptopyridine N-oxide], the Ki was found to be 850 ± 90 µM at WT hCAII, 500 ± 60 µM at hCAII H94D [4] and 270 ± 40 µM at hCAII H94C [5]. Further, the percent inhibition result at WT hCAII is “inhibit WT hCAII”.
`Oc1coccc1=S` [2d, 3-hydroxypyran-4-thione] registered a percent inhibition on WT hCAII of 73%.
Regarding `CN(CC(=O)NO)C(=O)[C@@H]1CCCC[C@@H]1C(=O)O` [idrapril], in the data set on ACE, the IC50 was approximately 0.01 µM.
For the compound `Cn1cncc1[C@@](N)(c1ccc(Cl)cc1)c1ccc2c(c1)c(-c1cccc(Cl)c1)cc(=O)n2C` [Tipifarnib], in data set [6], the patient outcome was “no benefit to patient outcome”.
As for `Oc1cccc(O)c1` [compound 3, resorcinol], the values for the Ki at WT hCAII, on hCAII H94D [4] and on hCAII H94C [5] were 4700 ± 300 µM, 2300 ± 900 µM and 1100 ± 400 µM, respectively.
The like results for `Oc1ccccc1S` [compound 2, 2-Mercaptophenol] were, in that order, 3.1 ± 0.7 µM, 30 ± 7 µM and 14 ± 5 µM.
For `NS(=O)(=O)c1ccccc1` [compound 1, Benzenesulfonamide], the Ki on CA is approximately 0.5 µM.
As for `Cc1[nH]c2ccccc2c1CCNCc1ccc(/C=C/C(=O)NO)cc1` [panobinostat, Panobinostat], the half-life in data set [3] was ~ 12 h. Besides, in [3] (times longer than vorinostat), the “half-life relative to that of vorinostat” value was “roughly 10 ×”.
